Common to all, as to type: cell-based
Assay [1] relates to essential thrombocythemia cell line SET-2 cells (harboring endogenous JAK2 point mutation). Description: Cell proliferation assay, SET-2 cells (CellTiter-Glo). The following applies: Homo sapiens, 72 hours incubation, read-out: Cell Proliferation IC50 SET2. As to the method: (§1) Cell Proliferation Assays.
(§2) Colorectal cell lines KM 12 (harboring endogenous TPM3-TRKA fusion gene) cells were cultured in DMEM medium, supplemented with 10% fetal bovine serum and 100 U/mL of penicillin/streptomycin. 5000 cells were seeded in 384 well white plate for 24 hours before compounds treatment. Cell proliferation was measured using CellTiter-Glo luciferase-based ATP detection assay (Promega) following the manufactures's protocol after 72 hours incubation. IC50 determinations were performed using GraphPad Prism software (GraphPad, Inc., San Diego, Calif.). Alternatively, essential thrombocythemia cell line SET-2 cells (harboring endogenous JAK2 V618F point mutation) or T cell lymphoma Karpas-299 cell line (harboring endogenous NPM-ALK fusion gene) were cultured in RPMI medium, supplemented with 10% fetal bovine serum and 100 U/mL of penicillin/streptomycin. 5000 cells were seeded in 384 well white plate for 24 hours before compounds treatment. Cell proliferation was measured using CellTiter-Glo luciferase-based ATP detection assay (Promega) following the manufactures's protocol after 72 hours incubation. IC50 determinations were performed using GraphPad Prism software (GraphPad, Inc., San Diego, Calif.).
In general terms: ATP-based viability assays read luminescence as a measure of living cells.

Assay [2] relates to T cell lymphoma Karpas-299 cell line (harboring endogenous NPM-ALK fusion gene). In words: Cell proliferation assay, Karpas-299 cells (CellTiter-Glo). The following applies: Homo sapiens, 72 hours incubation. As to the method: as §1, §2
For assay [3], the system named is Colorectal cell lines KM 12 (harboring endogenous TPM3-TRKA fusion gene). In words: Cell proliferation assay, KM12 cells (CellTiter-Glo). The following applies: Homo sapiens, 72 hours incubation. As to the method: as §1
as §2, with “Alternatively, essential thrombocythemia cell line SET-2 cells (harboring endogenous JAK2 V618F point mutation) or T cell lymphoma Karpas-299 cell line (harboring endogenous NPM-ALK fusion gene) were cultured in RPMI medium, supplemented with 10% fetal bovine serum and 100 U/mL of penicillin/streptomycin.” left out

In another assay the target is T1, CD74-ROS1 Ba/F3 (Homo sapiens, UniProt P08922).
T1 construct: fused on or other part: P04233 (HLA class II histocompatibility antigen gamma chain)
T1 sequence (P08922 whole entry, change not shown, the tested form may be a part): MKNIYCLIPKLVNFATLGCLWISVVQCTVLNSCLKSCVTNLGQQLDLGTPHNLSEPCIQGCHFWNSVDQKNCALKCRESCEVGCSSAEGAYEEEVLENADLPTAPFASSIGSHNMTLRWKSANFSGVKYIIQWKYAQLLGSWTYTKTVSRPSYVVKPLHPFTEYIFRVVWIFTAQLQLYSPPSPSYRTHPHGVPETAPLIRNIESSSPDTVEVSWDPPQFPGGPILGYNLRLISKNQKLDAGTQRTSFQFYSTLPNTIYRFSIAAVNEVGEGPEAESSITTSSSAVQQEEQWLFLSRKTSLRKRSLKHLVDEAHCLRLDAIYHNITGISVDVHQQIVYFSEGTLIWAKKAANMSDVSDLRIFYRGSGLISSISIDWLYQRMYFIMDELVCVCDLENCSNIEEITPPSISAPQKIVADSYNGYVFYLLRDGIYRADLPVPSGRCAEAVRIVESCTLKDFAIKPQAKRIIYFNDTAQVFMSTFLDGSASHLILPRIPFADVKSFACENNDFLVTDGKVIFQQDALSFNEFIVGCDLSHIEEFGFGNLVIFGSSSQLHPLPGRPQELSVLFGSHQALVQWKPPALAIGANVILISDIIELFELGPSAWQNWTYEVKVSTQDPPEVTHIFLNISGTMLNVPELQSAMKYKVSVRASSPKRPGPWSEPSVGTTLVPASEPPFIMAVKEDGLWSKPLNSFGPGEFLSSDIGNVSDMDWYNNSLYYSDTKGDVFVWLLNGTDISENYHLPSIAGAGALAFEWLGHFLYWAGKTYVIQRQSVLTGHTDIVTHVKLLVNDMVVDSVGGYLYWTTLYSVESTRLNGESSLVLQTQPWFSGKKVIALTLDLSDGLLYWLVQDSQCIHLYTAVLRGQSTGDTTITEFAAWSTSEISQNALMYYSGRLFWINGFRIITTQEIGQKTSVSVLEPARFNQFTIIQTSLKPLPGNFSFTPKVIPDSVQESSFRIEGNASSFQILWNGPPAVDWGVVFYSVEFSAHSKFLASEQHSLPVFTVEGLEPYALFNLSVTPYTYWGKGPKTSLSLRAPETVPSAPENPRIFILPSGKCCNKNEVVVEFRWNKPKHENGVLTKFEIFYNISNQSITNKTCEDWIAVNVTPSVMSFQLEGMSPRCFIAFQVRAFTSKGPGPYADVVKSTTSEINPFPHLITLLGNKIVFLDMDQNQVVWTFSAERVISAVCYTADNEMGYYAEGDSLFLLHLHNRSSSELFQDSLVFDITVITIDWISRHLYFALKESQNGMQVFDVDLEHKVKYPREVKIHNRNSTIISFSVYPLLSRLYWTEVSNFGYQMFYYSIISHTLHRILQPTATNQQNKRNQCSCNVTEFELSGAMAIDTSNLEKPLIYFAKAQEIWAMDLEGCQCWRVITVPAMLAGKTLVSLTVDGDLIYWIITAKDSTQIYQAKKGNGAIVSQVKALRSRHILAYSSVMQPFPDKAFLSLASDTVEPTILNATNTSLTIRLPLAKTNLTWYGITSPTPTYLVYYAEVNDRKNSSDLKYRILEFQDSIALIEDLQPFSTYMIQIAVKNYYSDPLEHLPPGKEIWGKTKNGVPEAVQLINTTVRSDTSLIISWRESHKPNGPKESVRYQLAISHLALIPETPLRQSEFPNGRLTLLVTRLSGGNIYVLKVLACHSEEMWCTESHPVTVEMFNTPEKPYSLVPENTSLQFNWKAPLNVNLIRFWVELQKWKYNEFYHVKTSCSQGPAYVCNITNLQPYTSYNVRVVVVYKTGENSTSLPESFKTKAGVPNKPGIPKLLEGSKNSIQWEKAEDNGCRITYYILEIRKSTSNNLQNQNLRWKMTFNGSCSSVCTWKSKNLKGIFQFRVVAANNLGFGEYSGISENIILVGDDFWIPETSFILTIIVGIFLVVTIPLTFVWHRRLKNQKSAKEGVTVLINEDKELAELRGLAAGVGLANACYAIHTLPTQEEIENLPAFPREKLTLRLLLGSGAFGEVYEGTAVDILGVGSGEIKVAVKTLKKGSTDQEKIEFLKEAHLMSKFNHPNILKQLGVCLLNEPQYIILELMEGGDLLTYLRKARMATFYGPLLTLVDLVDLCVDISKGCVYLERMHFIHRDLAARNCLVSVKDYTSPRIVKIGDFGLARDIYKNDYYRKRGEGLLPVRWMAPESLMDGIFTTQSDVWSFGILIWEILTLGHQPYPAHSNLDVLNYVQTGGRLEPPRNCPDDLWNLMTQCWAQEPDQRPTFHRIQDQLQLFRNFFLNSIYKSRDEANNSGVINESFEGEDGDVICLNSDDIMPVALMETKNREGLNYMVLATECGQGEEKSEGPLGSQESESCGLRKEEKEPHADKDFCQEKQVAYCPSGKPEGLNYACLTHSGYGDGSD
In words: Cell proliferation assay, CD74-ROS1 Ba/F3 stable cell line (CellTiter-Glo). The following applies: Ba/F3-CD74-ROS1 wild type cells, 72 hours compound incubation; read-out: Cell Proliferation IC50 CD74-ROS1 Ba/F3. From the text:
(§3) Creation of CD74-ROS1 and EML4-ALK Ba/F3 Stable Cell Lines and Cell Proliferation Assays.
(§4) The CD74-ROS1 wild-type gene and EML4-ALK wild-type gene (variant 1) were synthesized at GenScript and cloned into pCDH-CMV-MCS-EF1-Puro plasmid (System Biosciences, Inc). Ba/F3-CD74-ROS1 and Ba/F3-EML4-ALK wild type cell lines were generated by infecting Ba/F3 cells with lentivirus containing CD74-ROS1 wide-type and EML4-ALK wild type. Stable cell lines were selected by puromycin treatment, followed by IL-3 withdrawal. 3000 cells were seeded in 384 well white plate overnight before compound treatment. Cell proliferation was measured using CellTiter-Glo luciferase-based ATP detection assay (Promega) following the manufactures's protocol after 72 hours of various concentration of compound incubation. IC50 determinations were performed using GraphPad Prism software (GraphPad, Inc., San Diego, Calif.).

A further assay concerns the target T2, EML4-ALK Ba/F3 (Homo sapiens, UniProt Q9UM73).
T2 construct: fused on or other part: Q9HC35 (Echinoderm microtubule-associated protein-like 4)
In words: Cell proliferation assay, EML4-ALK Ba/F3 stable cell line (CellTiter-Glo). The following applies: Ba/F3-EML4-ALK wild type (variant 1) cells, 72 hours compound incubation; read-out: Cell Proliferation IC50 EML4-ALK Ba/F3.
From the text: as §3, §4

Molecules are shown by their SMILES. A value given as a limit tells only on which side of the number the result lay.

T2 sequence (Q9UM73 whole entry, change not shown, the tested form may be a part): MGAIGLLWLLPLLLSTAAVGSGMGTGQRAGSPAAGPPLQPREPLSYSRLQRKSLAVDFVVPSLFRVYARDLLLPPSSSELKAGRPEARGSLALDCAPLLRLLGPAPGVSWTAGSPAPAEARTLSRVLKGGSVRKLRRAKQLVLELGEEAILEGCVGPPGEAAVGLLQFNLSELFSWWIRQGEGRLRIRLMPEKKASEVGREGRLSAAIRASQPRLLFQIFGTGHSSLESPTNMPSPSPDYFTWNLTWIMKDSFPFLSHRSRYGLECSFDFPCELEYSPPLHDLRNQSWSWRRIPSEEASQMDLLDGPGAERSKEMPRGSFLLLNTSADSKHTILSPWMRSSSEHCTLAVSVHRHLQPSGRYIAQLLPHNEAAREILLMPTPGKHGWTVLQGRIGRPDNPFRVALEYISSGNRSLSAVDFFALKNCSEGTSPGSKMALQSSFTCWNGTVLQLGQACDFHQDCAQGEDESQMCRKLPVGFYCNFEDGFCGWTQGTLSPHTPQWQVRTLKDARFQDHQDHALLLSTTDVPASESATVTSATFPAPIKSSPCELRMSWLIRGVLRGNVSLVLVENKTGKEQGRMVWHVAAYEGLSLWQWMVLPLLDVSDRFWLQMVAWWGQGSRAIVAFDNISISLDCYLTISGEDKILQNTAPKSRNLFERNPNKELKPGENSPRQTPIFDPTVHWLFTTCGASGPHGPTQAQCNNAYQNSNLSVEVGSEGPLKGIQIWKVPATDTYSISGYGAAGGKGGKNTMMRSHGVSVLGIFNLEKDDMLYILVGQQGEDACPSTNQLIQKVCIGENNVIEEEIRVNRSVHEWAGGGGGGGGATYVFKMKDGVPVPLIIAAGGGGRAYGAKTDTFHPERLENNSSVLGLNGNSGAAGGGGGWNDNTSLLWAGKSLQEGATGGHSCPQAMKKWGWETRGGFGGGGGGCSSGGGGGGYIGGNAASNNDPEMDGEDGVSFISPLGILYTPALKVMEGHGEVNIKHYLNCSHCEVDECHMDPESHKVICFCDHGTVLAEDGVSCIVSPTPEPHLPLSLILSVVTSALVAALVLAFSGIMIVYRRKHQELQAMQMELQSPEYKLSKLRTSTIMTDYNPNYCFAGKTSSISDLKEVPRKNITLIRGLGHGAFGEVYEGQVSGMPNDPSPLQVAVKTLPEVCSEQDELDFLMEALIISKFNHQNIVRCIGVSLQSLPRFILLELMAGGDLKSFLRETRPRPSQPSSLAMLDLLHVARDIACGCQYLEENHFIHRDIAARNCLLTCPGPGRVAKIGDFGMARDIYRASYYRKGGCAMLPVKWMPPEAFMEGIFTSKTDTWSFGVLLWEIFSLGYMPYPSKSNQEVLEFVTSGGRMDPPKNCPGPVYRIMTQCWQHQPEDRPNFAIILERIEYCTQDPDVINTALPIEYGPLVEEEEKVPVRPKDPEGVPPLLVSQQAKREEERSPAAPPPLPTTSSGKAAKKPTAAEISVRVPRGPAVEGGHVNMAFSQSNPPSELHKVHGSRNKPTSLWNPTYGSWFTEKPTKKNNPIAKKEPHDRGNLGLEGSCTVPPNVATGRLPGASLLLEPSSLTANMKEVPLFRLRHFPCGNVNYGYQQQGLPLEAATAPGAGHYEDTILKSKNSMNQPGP

In the case of `CC[C@H]1CNC(=O)c2cnn3ccc(nc23)N[C@H](CC)c2cc(F)ccc2O1` [Compound 20, (7S,13R)-7,13-diethyl-11-fluoro-6,7,13,14-tetrahydro-1,15-ethenopyrazolo[4,3-f][1,4,8,10]benzoxatriazacyclotridecin-4(5H)-one], the IC50 in assay [1] was found to be 0.404 µM; in assay [2], 0.144 µM; in assay [3], 0.003 µM. Also, the GI50 at CD74-ROS1 Ba/F3 stood at 0.0002 µM; on EML4-ALK Ba/F3, 0.151 µM.

For `C[C@H]1Nc2ccn3ncc(c3n2)C(=O)N[C@H](C(F)F)COc2ccc(F)cc21` [Compound 17, (6S,13R)-6-(difluoromethyl)-11-fluoro-13-methyl-6,7,13,14-tetrahydro-1,15-ethenopyrazolo[4,3-f][1,4,8,10]benzoxatriazacyclotridecin-4(5H)-one], the IC50 was determined as 0.005 µM in assay [1], 0.297 µM in assay [2] and 0.0002 µM in assay [3]. The GI50 amounted to 0.003 µM at CD74-ROS1 Ba/F3 and 2.69 µM at EML4-ALK Ba/F3.

Consider `CC[C@H]1COc2ccc(F)cc2[C@@H](CC)Nc2ccn3ncc(c3n2)C(=O)N1` [Compound 21, (6S,13R)-6,13-diethyl-11-fluoro-6,7,13,14-tetrahydro-1,15-ethenopyrazolo[4,3-f][1,4,8,10]benzoxatriazacyclotridecin-4(5H)-one], for which the IC50 in assay [1] came to 1.13 µM; in assay [2], 8.03 µM; in assay [3], 0.003 µM. Moreover, the GI50 worked out at 0.0452 µM on CD74-ROS1 Ba/F3 and 6.79 µM at EML4-ALK Ba/F3.

Turning to `C[C@H]1Nc2ccn3ncc(c3n2)C(=O)N[C@@H](CO)COc2ccc(F)cc21` [Compound 6, (6S,13R)-11-fluoro-6-(hydroxymethyl)-13-methyl-6,7,13,14-tetrahydro-1,15-ethenopyrazolo[4,3-f][1,4,8,10]benzoxatriazacyclotridecin-4(5H)-one], the figures for the IC50 in assay [1], in assay [2] and in assay [3] were 0.164 µM, 0.065 µM and 0.0005 µM, respectively. Also, the GI50 came to 0.0028 µM on CD74-ROS1 Ba/F3 and 0.116 µM on EML4-ALK Ba/F3.

As for `C[C@H]1Nc2ccn3ncc(c3n2)C(=O)N[C@H](CF)COc2ccc(F)cc21` [Compound 11, (6S,13R)-11-fluoro-6-(fluoromethyl)-13-methyl-6,7,13,14-tetrahydro-1,15-ethenopyrazolo[4,3-f][1,4,8,10]benzoxatriazacyclotridecin-4(5H)-one], the IC50 in assay [1] is 0.187 µM; in assay [2], 0.59 µM; in assay [3], 0.002 µM. The GI50 stood at 0.0189 µM on CD74-ROS1 Ba/F3 and 2.43 µM on EML4-ALK Ba/F3.

As for `C[C@H]1Nc2ccn3ncc(c3n2)C(=O)NC[C@H](C(F)F)Oc2ccc(F)cc21` [Compound 18, (7R,13R)-7-(difluoromethyl)-11-fluoro-13-methyl-6,7,13,14-tetrahydro-1,15-ethenopyrazolo[4,3-f][1,4,8,10]benzoxatriazacyclotridecin-4(5H)-one], the IC50 came out at 0.0986 µM in assay [1], 0.0247 µM in assay [2] and 0.0002 µM in assay [3]. For the same compound, the GI50 was 0.0002 µM at CD74-ROS1 Ba/F3 and 0.0284 µM at EML4-ALK Ba/F3.

`O=C1NCCOc2ccc(F)cc2[C@@H](CCO)Nc2ccn3ncc1c3n2` [Compound 22, (13R)-11-fluoro-13-(2-hydroxyethyl)-6,7,13,14-tetrahydro-1,15-ethenopyrazolo[4,3-f][1,4,8,10]benzoxatriazacyclotridecin-4(5H)-one]: the figures for the IC50 in assay [1], in assay [2] and in assay [3] were 0.854 µM, 0.352 µM and 0.022 µM, respectively. Also, the values for the GI50 on CD74-ROS1 Ba/F3 and at EML4-ALK Ba/F3 were 1 µM and more than 10 µM, respectively.

Regarding `CC(C)(O)[C@H]1Nc2ccn3ncc(c3n2)C(=O)NCCOc2ccc(F)cc21` [Compound 24, (13S)-11-fluoro-13-(2-hydroxypropan-2-yl)-6,7,13,14-tetrahydro-1,15-ethenopyrazolo[4,3-f][1,4,8,10]benzoxatriazacyclotridecin-4(5H)-one], the IC50 in assay [1] amounted to 1.32 µM; in assay [2] it was 0.264 µM; in assay [3], 0.005 µM. For the same compound, the GI50 on CD74-ROS1 Ba/F3 amounted to 0.008 µM; on EML4-ALK Ba/F3, 0.475 µM.

In the case of `C[C@H]1Nc2ccn3ncc(c3n2)C(=O)NC[C@@H](CF)Oc2ccc(F)cc21` [Compound 10, (7S,13R)-11-fluoro-7-(fluoromethyl)-13-methyl-6,7,13,14-tetrahydro-1,15-ethenopyrazolo[4,3-f][1,4,8,10]benzoxatriazacyclotridecin-4(5H)-one], the IC50 in assay [1] came out at 0.057 µM; in assay [2], 0.08 µM; in assay [3] it was 0.0014 µM. In addition, the GI50 on CD74-ROS1 Ba/F3 stood at 0.0002 µM; on EML4-ALK Ba/F3 it was 0.0963 µM.

In the case of `C[C@H]1Nc2ccn3ncc(c3n2)C(=O)NC[C@H](CN(C)C)Oc2ccc(F)cc21` [Compound 12, (7R,13R)-7-[(dimethylamino)methyl]-11-fluoro-13-methyl-6,7,13,14-tetrahydro-1,15-ethenopyrazolo[4,3-f][1,4,8,10]benzoxatriazacyclotridecin-4(5H)-one], the IC50 in assay [1] was determined as 1.96 µM; in assay [2], 2.27 µM; in assay [3], 0.042 µM. Besides, the GI50 at CD74-ROS1 Ba/F3 stood at 0.13 µM; on EML4-ALK Ba/F3, 5.09 µM.

With `C[C@H]1Nc2ccn3ncc(c3n2)C(=O)NC[C@@H](CO)Oc2ccc(F)cc21` [Compound 7, (7S,13R)-11-fluoro-7-(hydroxymethyl)-13-methyl-6,7,13,14-tetrahydro-1,15-ethenopyrazolo[4,3-f][1,4,8,10]benzoxatriazacyclotridecin-4(5H)-one], the IC50 was 0.19 µM in assay [1], 0.438 µM in assay [2] and 0.0168 µM in assay [3]. The results for the GI50 on CD74-ROS1 Ba/F3 and on EML4-ALK Ba/F3 were 0.0226 µM and 0.715 µM, respectively.

With `CC[C@H]1CNC(=O)c2cnn3ccc(nc23)N[C@H](C)c2cc(F)ccc2O1` [Compound 3, (7S,13R)-7-ethyl-11-fluoro-13-methyl-6,7,13,14-tetrahydro-1,15-ethenopyrazolo[4,3-f][1,4,8,10]benzoxatriazacyclotridecin-4(5H)-one], the IC50 in assay [1] was 0.263 µM; in assay [2], 0.083 µM; in assay [3], 0.0003 µM. The GI50 at CD74-ROS1 Ba/F3 stood at 0.0002 µM; at EML4-ALK Ba/F3 it was 0.138 µM.

As for `C[C@H]1Nc2ccn3ncc(c3n2)C(=O)NC[C@H](CF)Oc2ccc(F)cc21` [Compound 9, (7R,13R)-11-fluoro-7-(fluoromethyl)-13-methyl-6,7,13,14-tetrahydro-1,15-ethenopyrazolo[4,3-f][1,4,8,10]benzoxatriazacyclotridecin-4(5H)-one], the IC50 in assay [1] is 0.093 µM; in assay [2], 0.073 µM; in assay [3], 0.0004 µM. In addition, the GI50 on CD74-ROS1 Ba/F3 and at EML4-ALK Ba/F3 was 0.0002 µM in each case.

For `C[C@H]1Nc2ccn3ncc(c3n2)C(=O)N[C@@H](CN(C)C)COc2ccc(F)cc21` [Compound 13, (6S,13R)-6-[(dimethylamino)methyl]-11-fluoro-13-methyl-6,7,13,14-tetrahydro-1,15-ethenopyrazolo[4,3-f][1,4,8,10]benzoxatriazacyclotridecin-4(5H)-one], the IC50 stood at 4.03 µM in assay [1], 3.21 µM in assay [2] and 0.069 µM in assay [3]. For the same compound, the values for the GI50 on CD74-ROS1 Ba/F3 and at EML4-ALK Ba/F3 were 0.112 µM and 1.48 µM, respectively.

Consider `COC[C@@H]1CNC(=O)c2cnn3ccc(nc23)N[C@H](C)c2cc(F)ccc2O1` [Compound 25, (7S,13R)-11-fluoro-7-(methoxymethyl)-13-methyl-6,7,13,14-tetrahydro-1,15-ethenopyrazolo[4,3-f][1,4,8,10]benzoxatriazacyclotridecin-4(5H)-one], for which the figures for the IC50 in assay [1], in assay [2] and in assay [3] were 0.134 µM, 0.166 µM and 0.0061 µM, respectively. Besides, the GI50 at EML4-ALK Ba/F3 came to 0.0885 µM.

(Values after patent publication US11008337B2, “Chiral diaryl macrocycles as modulators of protein kinases” (Turning Point Therapeutics, Inc., priority 2015, dated 2021).)
